{"source": "patent US20090111818A1", "about": "“Combinations of Eszopiclone and O-Desmethylvenlafaxine, and Methods of Treatment of Menopause and Mood, Anxiety, and Cognitive Disorders” (SEPRACOR INC., priority 2005, published 2009)", "key": {"[1]": {"test_system": "norepinephrine synaptosomal uptake", "details": "cited from earlier work"}, "[2]": {"test_system": "women with insomnia secondary to perimenopause or menopause", "test": "Clinical study of eszopiclone 3 mg vs placebo: number of nocturnal awakenings due to hot flashes", "type": "in vivo, human", "details": "Week 1; 3 mg nightly; p<0.0001", "experimental": "The study was aimed at observing efficacy of eszopiclone 3 mg compared to placebo in the treatment of insomnia secondary to perimenopause or menopause.\nThe study was a multicenter, randomized, double-blind, placebo-controlled, parallel-group study. […] The primary method of analysis compared the post-randomization results between the two treatment groups.\nSubjects were women with insomnia secondary to perimenopause or menopause. Subjects were perimenopausal or menopausal and had insomnia symptoms including ≧45 minutes sleep latency (SL) and total sleep time (TST) ≦6 hours. Perimenopausal/menopausal symptoms predated the onset of sleep disturbance symptoms. The patient population was predominately Caucasian (77.2%). The mean age was 49, with a range of 40-60.\nA total of 410 subjects were randomized. Among them, 201 received 3 mg of eszopiclone (ESZ) nightly (at bedtime) for four weeks and 209 received matching placebo (PBO)."}, "[3]": {"details": "in vivo; cited from earlier work"}, "[4]": {"test_system": "norepinephrine uptake", "details": "in vitro; cited from earlier work"}, "[5]": {"test_system": "dopamine uptake", "details": "in vitro; cited from earlier work"}}}
{"molecule": "COc1ccc(C(CN(C)C)C2(O)CCCCC2)cc1", "note": "(single isomer, unassigned) [venlafaxine (−) enantiomer]", "values": [{"measurement": "inhibition of norepinephrine synaptosomal uptake, comparison of enantiomers", "setting": "[1]", "result": "more potent inhibitor"}]}
{"molecule": "CN1CCN(C(=O)O[C@H]2c3nccnc3C(=O)N2c2ccc(Cl)cn2)CC1", "note": "[Eszopiclone, (+) 6-(5-chloropyrid-2-yl)-5-(4-methylpiperazin-1-yl)carbonyloxy-7-oxo-6,7-dihydro-5H-pyrrolo[3-4-b]pyrazine]", "values": [{"measurement": "change from baseline in number of nocturnal awakenings due to hot flashes compared with PBO", "setting": "[2]", "result": "significantly reduced"}]}
{"molecule": "CN(C)CC(c1ccc(O)cc1)C1(O)CCCCC1", "note": "(racemic) [O-desmethylvenlafaxine, (±)-1-[2-(dimethylamino)-1-(4-hydroxyphenyl)ethyl]-cyclohexanol]", "values": [{"measurement": "half-life (t½)", "setting": "[3]", "result": "about 10 hours"}, {"measurement": "half-life relative to that of venlafaxine", "setting": "[3]", "result": "approximately 2.5 times"}, {"measurement": "inhibition of norepinephrine uptake compared with the parent compound venlafaxine", "setting": "[4]", "result": "more potent inhibitor"}, {"measurement": "inhibition of dopamine uptake compared with the parent compound venlafaxine", "setting": "[5]", "result": "more potent inhibitor"}]}
